Data published in US12522855B2, “Methods and kits for identifying thrombus origin and optimizing post-ischemic event treatment” (TEL HASHOMER MEDICAL RESEARCH INFRASTRUCTURE AND SERVICES …, priority 2019, dated 2026).

Molecular target: thrombin (Homo sapiens, UniProt P00734)
Conditions: 1 μM final concentration, added to selected reaction wells; 15 clots from randomized sources
Procedure: Thrombin activity was measured as previously described by Beilin et al., (2001, Neuroreport: doi:10.1097/00001756-200108080-00013) in 10 L triplicates of clot-free buffer in a black Nunc 96 wells microplate by a fluorometric assay quantifying the cleavage of the synthetic peptide thrombin substrate Boc-Asp(OBzl)-Pro-Arg-AMC (I-1560, Bachem, Switzerland, 13 μM final concentration). Measurements were performed by the Infinite 2000 microplate reader (Tecan, infinite 200, Switzerland) with excitation and emission filters of 360±35 and 460±35 nm, respectively. For calibration, known concentrations of bovine thrombin (Sigma-Aldrich, Israel) were used in the same assay.

Substance: NAPAP
- effect on thrombin activity profile (specificity check of the fluorescent signal): high and consistent abolition of thrombin activity profile
